Experimental data from the supplement of paper PMC6045584.

Experiments:
Test in all cases: area under dose-response curve of surviving fraction (unscaled, Aref=0) (surviving fraction x log10(nM)); higher = more resistant
Conditions in all cases: exposure time: 5 days; dose range 0.5-1000 nM
ERLOTINIB = compound: C#Cc1cccc(Nc2ncnc3cc(OCCOC)c(OCCOC)cc23)c1 [ERLOTINIB]
In short: (§1)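 Inhibitor was applied to tumour cell lines at eight concentrations (0.5 to 1000 nM) for five days in 384-well plates. Luminescence from CellTiter-Glo, scaled to DMSO-only wells, gave surviving fractions in three screens per line, and these were fitted by 3-parameter logistic regression with the drc R package. The area under the curve is an unscaled activity area. Aref was 0, and dose was on a log10 scale.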

VINORELBINE = compound: CCC1=C[C@@H]2CN(C1)Cc1c([nH]c3ccccc13)[C@@](C(=O)OC)(c1cc3c(cc1OC)N(C)[C@H]1[C@@](O)(C(=O)OC)[C@H](OC(C)=O)[C@]4(CC)C=CCN5CC[C@]31[C@@H]54)C2 [VINORELBINE]
In short: as §1

PLX-4720 = compound: CCCS(=O)(=O)Nc1ccc(F)c(C(=O)c2c[nH]c3ncc(Cl)cc23)c1F [PLX-4720]
In short: as §1

SUNITINIB = compound: CCN(CC)CCNC(=O)c1c(C)[nH]c(/C=C2\C(=O)Nc3ccc(F)cc32)c1C [SUNITINIB]
In short: as §1

METHOTREXATE = compound: CN(Cc1cnc2nc(N)nc(N)c2n1)c1ccc(C(=O)N[C@@H](CCC(=O)O)C(=O)O)cc1 [METHOTREXATE]
In short: as §1

EVEROLIMUS = compound: CO[C@H]1C[C@@H]2CC[C@@H](C)[C@@](O)(O2)C(=O)C(=O)N2CCCC[C@H]2C(=O)O[C@H]([C@H](C)C[C@@H]2CC[C@@H](OCCO)[C@H](OC)C2)CC(=O)[C@H](C)/C=C(\C)[C@@H](O)[C@@H](OC)C(=O)[C@H](C)C[C@H](C)/C=C/C=C/C=C/1C [EVEROLIMUS]
In short: as §1

AZD4547 = compound: COc1cc(CCc2cc(NC(=O)c3ccc(N4CC(C)NC(C)C4)cc3)n[nH]2)cc(OC)c1 [AZD4547]
In short: as §1

ETOPOSIDE = compound: COc1cc([C@@H]2c3cc4c(cc3[C@@H](O[C@@H]3O[C@@H]5CO[C@@H](C)O[C@H]5[C@H](O)[C@H]3O)[C@H]3COC(=O)[C@H]23)OCO4)cc(OC)c1O [ETOPOSIDE]
In short: as §1

[1] = compound: Cc1nc(Nc2n[nH]c3c2CN(C(=O)N[C@H](CN(C)C)c2ccccc2)C3(C)C)c2sccc2n1
In short: as §1

MK2206 = compound: NC1(c2ccc(-c3nc4ccn5c(=O)[nH]nc5c4cc3-c3ccccc3)cc2)CCC1 [MK2206]
In short: as §1

[2] = compound: O=C(NOCC1CC1)c1ccc(F)c(F)c1Nc1ccc(I)cc1Cl
In short: as §1

MK0752 = compound: O=C(O)CC[C@H]1CC[C@@](c2cc(F)ccc2F)(S(=O)(=O)c2ccc(Cl)cc2)CC1 [MK0752]
In short: as §1

GEMCITABINE = compound: Nc1ccn([C@@H]2O[C@H](CO)[C@@H](O)C2(F)F)c(=O)n1 [GEMCITABINE]
In short: as §1

| Test System | area under dose-response curve (ERLOTINIB) | area under dose-response curve (VINORELBINE) | area under dose-response curve (PLX-4720) | area under dose-response curve (SUNITINIB) | area under dose-response curve (METHOTREXATE) | area under dose-response curve (EVEROLIMUS) | area under dose-response curve (AZD4547) | area under dose-response curve (ETOPOSIDE) | area under dose-response curve [1] | area under dose-response curve (MK2206) | area under dose-response curve [2] | area under dose-response curve (MK0752) | area under dose-response curve (GEMCITABINE) |
| --- | --- | --- | --- | --- | --- | --- | --- | --- | --- | --- | --- | --- | --- |
| 22RV1 PROSTATE | 3.31 | 1.53 | 3.09 | 3.06 | 2.21 | 1.48 | 3.43 | 2.73 | 1.33 | 2.65 | 2.6 | 3.57 | – |
| CADOES1 SOFT TISSUE | 2.74 | 2.63 | 3.09 | 3.22 | 1.82 | 1.49 | 3.23 | 3 | 2.56 | 2.82 | 2.87 | 3.14 | 1.18 |
| CAL51 BREAST | 3.36 | 1.28 | 3.19 | 2.99 | 1.91 | 1.23 | 2.67 | 2.79 | 0.818 | 3.16 | 3.12 | 3.32 | 0.99 |
| CAL120 BREAST | 3.02 | 1.59 | 2.96 | 2.74 | 1.67 | 1.62 | 2.59 | 2.9 | 1.08 | 3.14 | 2.97 | 3.37 | – |
| CASKI CERVIX | 2.27 | 1.27 | 3 | 2.3 | 2.23 | – | 3.17 | 2.72 | 0.674 | 2.5 | 2.58 | 3.28 | 1.01 |
| CHLA90 AUTONOMIC GANGLIA | 3.07 | 1.69 | 2.66 | 2.21 | 3.53 | 1.36 | 2.77 | 2.94 | 1.57 | 3.16 | 2.38 | 3.36 | 1.39 |
| COLO320DM LARGE INTESTINE | 3.34 | 3.2 | 3.03 | 2.59 | 1.92 | 2.62 | 3.59 | 3.54 | 2.68 | 3.11 | 3.26 | 3.87 | 1.53 |
| DU4475 BREAST | 3.44 | 1.96 | 1.92 | 2.1 | 3.28 | 0.518 | 3.5 | 1.65 | 0.457 | 2.76 | 1.65 | 3.26 | 1.48 |
| H23 LUNG | 2.52 | 1.74 | 3.19 | 2.86 | 1.75 | 1.76 | 3.37 | 3.08 | 1.47 | 3.04 | 2.08 | 3.65 | 1.22 |
| HCC70 BREAST | 3.46 | 1.66 | 3.36 | 3.4 | 3 | 1.89 | 3.63 | 3.16 | 0.85 | 2.8 | 2.8 | 3.56 | 1.12 |
| HCC78 LUNG | 2.89 | 1.48 | 3.25 | 2.96 | 2.26 | 1.75 | 3.56 | 2.45 | 1.31 | 2.5 | 2.58 | 3.32 | 0.382 |
| HCC1954 BREAST | 2.94 | 1.3 | 1.55 | 1.44 | 3.57 | 1.2 | 3.05 | 2.69 | 1.63 | 3.11 | 3.07 | 3.08 | 1.75 |
| HCT15 LARGE INTESTINE | 3.48 | 2.64 | 2.63 | 2.37 | 1.59 | 1.86 | 3.52 | 3.09 | 2.81 | 3.46 | 2.63 | 3.61 | 1.15 |
| HOS BONE | 3.4 | 1.78 | 3.19 | 3.1 | 1.32 | 2.56 | 3.24 | 2.45 | 1.45 | 3.15 | 3.27 | 3.51 | 0.975 |
| HSSYII SYNOVIAL | 3.37 | 0.855 | 2.43 | 1.93 | 2.96 | 1.79 | 1.51 | 2.41 | 1.02 | 3.02 | 2.61 | 3.29 | 0.795 |
| JIMT1 BREAST | 3.16 | 1.24 | 3.05 | 2.96 | 1.69 | 1.88 | 3.41 | 3.23 | 2.28 | 3.01 | 3.11 | 3.29 | 1.44 |
| KPD BONE | 3.57 | 2.29 | 3.19 | 3.08 | 3.55 | 1.44 | 3.14 | 2.77 | 1.06 | 2.3 | 3.25 | 3.43 | – |

| Test System | area under dose-response curve (ERLOTINIB) | area under dose-response curve (VINORELBINE) | area under dose-response curve (PLX-4720) | area under dose-response curve (SUNITINIB) | area under dose-response curve (METHOTREXATE) | area under dose-response curve (EVEROLIMUS) | area under dose-response curve (AZD4547) | area under dose-response curve (ETOPOSIDE) | area under dose-response curve [1] | area under dose-response curve (MK2206) | area under dose-response curve [2] | area under dose-response curve (MK0752) | area under dose-response curve (GEMCITABINE) |
| --- | --- | --- | --- | --- | --- | --- | --- | --- | --- | --- | --- | --- | --- |
| MCF7 BREAST | 3.32 | 2.07 | 2.81 | 2.56 | 2.23 | 1.74 | 3.09 | 2.83 | 2.09 | 2.79 | 2.83 | 3.07 | 1.94 |
| MDAMB134 BREAST | 3.65 | 2.38 | 2.51 | 2.75 | 3.13 | 2.21 | 3.23 | 3.5 | 3.15 | 2.78 | 2.87 | 3.51 | – |
| MDAMB231 BREAST | 3.4 | 1.77 | 3.25 | 3.4 | 3.12 | 2.01 | 3.37 | 3.08 | 1.79 | 3.09 | 3.01 | 3.28 | 2.29 |
| MDAMB361 BREAST | 2.9 | 2.09 | 2.92 | 2.37 | 2.76 | 2.12 | 3.18 | 3.08 | 2.83 | 2.39 | 3.27 | 2.88 | 2.69 |
| MDAMB436 BREAST | 3.36 | 1.99 | 2.86 | 2.56 | 2.65 | 2 | 3.36 | 2.79 | 2.55 | 3.01 | 2.96 | 3.02 | 1.85 |
| MDAMB468 BREAST | 3.23 | 1.33 | 3.1 | 3.17 | 2 | 1.93 | 3.6 | 3.72 | 0.925 | 3.04 | 3.21 | 3.61 | 1.09 |
| MFM223 BREAST | 4.35 | 1.45 | 2.87 | 2.38 | 4 | 2.56 | 1.63 | 3.2 | 1.83 | 2.57 | 3.55 | 3.93 | 1.99 |
| MHM BONE | 3.44 | 2.21 | 3.27 | 3.15 | 2.88 | 2.37 | 2.76 | 3.23 | 2.58 | 3.2 | 3.16 | 3.45 | 1.46 |
| NY BONE | 3.37 | 1.35 | 3.09 | 2.99 | 2.49 | 2.33 | 2.25 | 3.17 | 1.56 | 3.18 | 3.13 | 3.54 | 1.11 |
| OS25HAL BONE | 3.48 | 1.8 | 3.14 | 3.07 | 1.93 | 2.13 | 3.36 | 3.02 | 1.54 | 2.56 | 3.16 | 3.42 | 0.944 |
| PCI30 HEADNECK | 2.96 | 1.21 | 3.34 | 3.77 | – | 1.71 | 3.56 | 3.08 | 1.83 | 2.94 | 2.75 | 3.5 | 1.8 |
| SG43 HEADNECK | 2.23 | 1.93 | 3.93 | 3.53 | 2.93 | 3.01 | 2.62 | 2.8 | – | 2.3 | 2.18 | 3.25 | 2.1 |
| SNU475 LIVER | 3.21 | 2.17 | 2.43 | 2.27 | 3 | 1.26 | 3.14 | 3.16 | 1.98 | 3.02 | 2.41 | 3.31 | 1.81 |
| SYO1 SYNOVIAL | 3.34 | 1.3 | 2.17 | 1.69 | 1.91 | 1.81 | 2.4 | 2.14 | 0.731 | 2.79 | 2.4 | 3.26 | 0.79 |
| T47D BREAST | 3.73 | 1.99 | 3.2 | 3.18 | 2.28 | 2.24 | 3.76 | 2.95 | 2.87 | 2.61 | 3.24 | 3.56 | 2.72 |
| U2OS BONE | 3.46 | 2.14 | 3.23 | 2.94 | 2.4 | 2.39 | 2.79 | 2.88 | 1.35 | 3.14 | 3.26 | 3.56 | 1.49 |
